Measured values from patent US7759345B2, “Antitumoral derivatives of ET-743” (priority 2001, dated 2010).
Like-named read-outs stand apart in the source and are kept apart here.

Experiments:
A-549 = assay: Inhibition of cells growth by colorimetric assay (SRB), A-549; format: cell-based
Experimental: (§1) 2°.—Inhibition of Cells Growth by Colorimetric Assay.
(§2) A colorimetric type of assay, using sulforhodamine B (SRB) reaction has been adapted for a quantitative measurement of cell growth and viability [following the technique described by Philip Skehan, et al. (1990), New colorimetric cytotoxicity assay for anticancer drug screening, J. Natl. Cancer Inst., 82:1107-1112]
(§3) This form of the assay employs 96 well cell culture microplates of 9 mm diameter (Faircloth, 1988; Mosmann, 1983). Most of the cell lines are obtained from American Type Culture Collection (ATCC) derived from different human cancer types.
(§4) Cells are maintained in RPMI 1640 10% FBS, supplemented with 0.1 g/l penicillin and 0.1 g/l streptomycin sulfate and then incubated at 37° C., 5% CO2 and 98% humidity. For the experiments, cells were harvested from subconfluent cultures using trypsin and resuspended in fresh medium before plating.
(§5) Cells are seeded in 96 well microtiter plates, at 5×10^3 cells per well in aliquots of 195 μl medium, and they are allowed to attach to the plate surface by growing in drug free medium for 18 hours. Afterward, samples are added in aliquots of 5 μl in a ranging from 10 to 10^−8 μg/ml, dissolved in DMSO/EtOH/PBS (0.5:0.5:99). After 48 hours exposure, the antitumor effect are measured by the SRB methodology: cells are fixed by adding 50 μl of cold 50% (wt/vol) trichloroacetic acid (TCA) and incubating for 60 minutes at 4° C. Plates are washed with deionized water and dried. One hundred μl of SRB solution (0.4% wt/vol in 1% acetic acid) is added to each microtiter well and incubated for 10 minutes at room temperature. Unbound SRB is removed by washing with 1% acetic acid. Plates are air dried and bound stain is solubilized with Tris buffer. Optical densities are read on a automated spectrophotometric plate reader at a single wavelength of 490 nm.
(§6) The values for mean+/−SD of data from triplicate wells are calculated. Some parameters for cellular responses can be calculated: GI=growth inhibition, TGI=total growth inhibition (cytostatic effect) and LC=cell killing (cytotoxic effect).
(§7) Obtained results may predict the usefulness of a certain drug as a potential cancer treatment. For this technique, compounds which show GI50 values smaller than 10 μg/ml are selected to continue with further studies. GI50's data allow to predict that not only could a drug be cystostatic, but also it could have a potential in terms of tumor reduction.

HT-29 = assay: Inhibition of cells growth by colorimetric assay (SRB), HT-29; format: cell-based
Experimental: as §1, §2, §3, §4, §5, §6, §7

[1] = Homo sapiens, A549, 48 h, A-549, SRB, 48 hours exposure, read-out: GI50 A-549
[2] = Homo sapiens, A549, 48 h, read-out: LC50 A-549, A-549, SRB, 48 hours exposure
[3] = Homo sapiens, HT-29, 48 h, HT-29, SRB, 48 hours exposure, read-out: GI50 HT-29
[4] = Homo sapiens, HT-29, 48 h, read-out: LC50 HT-29, HT-29, SRB, 48 hours exposure
[5] = Homo sapiens, A549, 48 h, read-out: A-549 GI50
[6] = Homo sapiens, A549, 48 h, read-out: A-549 LC50, SRB assay, 48 hours exposure
[7] = Homo sapiens, A549, 48 h, A-549, SRB, 48 hours exposure, read-out: A-549 GI50
[8] = Homo sapiens, A549, 48 h, read-out: A-549 LC50, A-549, SRB, 48 hours exposure
[9] = Homo sapiens, HT-29, 48 h, HT-29, SRB, 48 hours exposure, read-out: HT-29 GI50
[10] = Homo sapiens, HT-29, 48 h, read-out: HT-29 LC50, HT-29, SRB, 48 hours exposure

Structure (SMILES) | TGI A-549 (A-549; A-549, SRB, 48 hours exposure) | GI50 (A-549; [1]) [nM] | LC50 (concentration for 50% cell killing) (A-549; [2]) [nM] | TGI HT-29 (HT-29; HT-29, SRB, 48 hours exposure) | GI50 (HT-29; [3]) [nM] | LC50 (concentration for 50% cell killing) (HT-29; [4]) [nM] | A-549 TGI (A-549; A-549, SRB, 48 hours exposure) | HT-29 TGI (HT-29; HT-29, SRB, 48 hours exposure) | LC50 (concentration for 50% cell killing) (A-549; [8]) [nM] | LC50 (concentration for 50% cell killing) (HT-29; [10]) [nM] | also measured
C=COC(=O)N1CCc2cc(O)c(OC)cc2[C@@]12CS[C@@H]1c3c(OC(C)=O)c(C)c4c(c3[C@H](COC2=O)N2C1[C@H]1c3c(cc(C)c(OC)c3O)C[C@@H]([C@@H]2C#N)N1C)OCO4 (stereo partly drawn) [Compound 33] | 2.50E-08 | 4.37 | 12700 | 1.25E-07 | 34.2 | 12500 |  |  |  |  | 
COc1cc2c(cc1OC(=O)OC(C)(C)C)CCNC21CSC2c3c(OC(=O)CCCCC4SCC5NC(=O)NC54)c(C)c4c(c3C(COC1=O)N1C(C#N)C3Cc5cc(C)c(OC)c(O)c5C(C21)N3C)OCO4 (stereo not drawn) [Compound 123] |  |  |  |  |  |  | 2.09E-08 | 3.14E-09 |  |  | GI50 (A-549; A-549, SRB, 48 hours exposure, read-out: A-549 GI50): 7.33 nM; LC50 (50% lethal concentration) (A-549; A-549, SRB, 48 hours exposure, read-out: A-549 LC50): 73.3 nM; GI50 (HT-29; HT-29, SRB, 48 hours exposure, read-out: HT-29 GI50): 3.14 nM; CC50 (HT-29; HT-29, SRB, 48 hours exposure, read-out: HT-29 LC50): 31.4 nM
C=COC(=O)Oc1cc2c(cc1OC)[C@@]1(CS[C@@H]3c4c(OC(C)=O)c(C)c5c(c4[C@H](COC1=O)N1C3[C@H]3c4c(cc(C)c(OC)c4O)C[C@@H]([C@@H]1C#N)N3C)OCO5)NCC2 (stereo partly drawn) [Compound 29] | 4.32E-09 | 2.16 | 10.8 | 2.16E-09 | 2.16 | 1080 |  |  |  |  | 
COc1cc2c(cc1O)CCN[C@]21CS[C@@H]2c3c(OC(C)=O)c(C)c4c(c3[C@H](COC1=O)N1C2[C@H]2c3c(cc(C)c(O)c3O)C[C@@H]([C@@H]1C#N)N2C)OCO4 (stereo partly drawn) [Compound 220] |  |  |  |  |  |  |  |  |  |  | GI50 (A-549; [5]): 132 nM; LC50 (concentration for 50% cell killing) (A-549; [6]): 6610 nM; A-549 TGI (A-549; SRB assay, 48 hours exposure): 3.96E-07; GI50 (HT-29; Homo sapiens, HT-29, 48 h, read-out: H-T29 GI50): 132 nM; LC50 (concentration for 50% cell killing) (HT-29; Homo sapiens, HT-29, 48 h, read-out: H-T29 LC50, SRB assay, 48 hours exposure): 1320 nM; H-T29 TGI (HT-29; SRB assay, 48 hours exposure): 5.28E-07
COc1cc2c(cc1O)CCN[C@]21CS[C@@H]2c3c(OC(=O)CCCC[C@@H]4SCC5NC(=O)NC54)c(C)c4c(c3[C@H](COC1=O)N1C2[C@H]2c3c(cc(C)c(OC)c3OC(=O)CCCCC3SCC5NC(=O)NC53)C[C@@H]([C@@H]1C#N)N2C)OCO4 (stereo partly drawn) [Compound 148] |  |  |  |  |  |  | 5.19E-07 | 3.32E-07 | 2880 | 786 | GI50 (A-549; [7]): 255 nM; GI50 (HT-29; [9]): 140 nM
CCCC(=O)Oc1cc2c(cc1OC)[C@@]1(CS[C@@H]3c4c(OC(C)=O)c(C)c5c(c4[C@H](COC1=O)N1C3[C@@H]3N[C@@H](Cc4cc(C)c(OC)c(O)c43)[C@@H]1O)OCO5)NCC2 (stereo partly drawn) [Compound 211] |  |  |  |  |  |  |  |  |  |  | GI50 (A-549; Homo sapiens, A549, 48 h, SRB assay, 48 hours exposure, read-out: A-549 GI50): 0.00367 nM; LC50 (concentration for 50% cell killing) (A-549; [6]): 61100 nM; A-549 TGI (A-549; SRB assay, 48 hours exposure): 6.11E-09; GI50 (HT-29; Homo sapiens, HT-29, 48 h, SRB assay, 48 hours exposure, read-out: HT-29 GI50): 0.00122 nM; LC50 (concentration for 50% cell killing) (HT-29; Homo sapiens, HT-29, 48 h, read-out: HT-29 LC50, SRB assay, 48 hours exposure): 61100 nM; HT-29 TGI (HT-29; SRB assay, 48 hours exposure): 1.22E-12
COc1cc2c(cc1OC)[C@@]1(CS[C@@H]3c4c(OC(C)=O)c(C)c5c(c4[C@H](COC1=O)N1C3[C@H]3c4c(cc(C)c(OC)c4O)C[C@@H]([C@@H]1C#N)N3C)OCO5)NCC2 (stereo partly drawn) [Compound 34] | 2.84E-09 | 0.764 | 9.06 | 1.29E-08 | 0.809 | 12700 |  |  |  |  | 
COc1cc2c(cc1OC(=O)OC(C)(C)C)CCN[C@]21CS[C@@H]2c3c(OC(=O)[C@H](C)NC(=O)OC(C)(C)C)c(C)c4c(c3[C@H](COC1=O)N1C2[C@H]2c3c(cc(C)c(OC)c3O)C[C@@H]([C@@H]1C#N)N2C)OCO4 (stereo partly drawn) [Compound 125] |  |  |  |  |  |  | 3.00E-09 | 2.00E-10 | 8 | 3 | GI50 (A-549; [7]): 1 nM; GI50 (HT-29; [9]): 0.2 nM
C=COC(=O)Oc1c(C)c2c(c3c1[C@H]1SC[C@]4(NCCc5cc(OC(=O)OC(C)(C)C)c(OC)cc54)C(=O)OC[C@@H]3N3C1[C@H]1c4c(cc(C)c(OC)c4O)C[C@@H]([C@@H]3C#N)N1C)OCO2 (stereo partly drawn) [Compound 118] |  |  |  |  |  |  | 8.90E-08 | 7.79E-09 | 2220 | 11100 | GI50 (A-549; [5]): 3.34 nM; GI50 (HT-29; Homo sapiens, HT-29, 48 h, read-out: HT-29 GI50): 7.79 nM
